In patent US12201632B2, “Levoketoconazole for treatment of congenital adrenal hyperplasia and primary aldosteronism” (Strongbridge Dublin Limited, priority 2018, dated 2025):

Tested on: EAS associated adrenal hyperplasia no. 1 primary culture
Assay: Steroid profile by LC/MS-MS in EAS associated adrenal hyperplasia no. 1
Format: cell-based, human
Details: for 11-DOC absolute change vs ACTH stimulation with vehicle / 11-DOC percentage change vs ACTH stimulation with vehicle / 17-OHP absolute change vs ACTH stimulation with vehicle / 17-OHP percentage change vs ACTH stimulation with vehicle / Androstenedione absolute change vs ACTH stimulation with vehicle / Androstenedione percentage change vs ACTH stimulation with vehicle / Corticosterone absolute change vs ACTH stimulation with vehicle / Corticosterone percentage change vs ACTH stimulation with vehicle / Cortisol absolute change vs ACTH stimulation with vehicle / Cortisol percentage change vs ACTH stimulation with vehicle / DHEA absolute change vs ACTH stimulation with vehicle / DHEAS absolute change vs ACTH stimulation with vehicle / Prog absolute change vs ACTH stimulation with vehicle / Prog percentage change vs ACTH stimulation with vehicle / Testosterone absolute change vs ACTH stimulation with vehicle / Testosterone percentage change vs ACTH stimulation with vehicle: EAS associated adrenal hyperplasia no. 1, ACTH; for 11-DOC absolute change vs ACTH stimulation with vehicle / 11-DOC percentage change vs ACTH stimulation with vehicle / 17-OHP absolute change vs ACTH stimulation with vehicle / 17-OHP percentage change vs ACTH stimulation with vehicle / Androstenedione absolute change vs ACTH stimulation with vehicle / Androstenedione percentage change vs ACTH stimulation with vehicle / Corticosterone absolute change vs ACTH stimulation with vehicle / Corticosterone percentage change vs ACTH stimulation with vehicle / Cortisol absolute change vs ACTH stimulation with vehicle / Cortisol percentage change vs ACTH stimulation with vehicle / DHEA absolute change vs ACTH stimulation with vehicle / DHEAS absolute change vs ACTH stimulation with vehicle / Prog absolute change vs ACTH stimulation with vehicle / Prog percentage change vs ACTH stimulation with vehicle / Testosterone absolute change vs ACTH stimulation with vehicle / Testosterone percentage change vs ACTH stimulation with vehicle / 11-DOC absolute change vs control / 11-DOC percentage change vs control / 17-OHP absolute change vs control / 17-OHP percentage change vs control / Androstenedione absolute change vs control / Androstenedione percentage change vs control / Corticosterone absolute change vs control / Corticosterone percentage change vs control / Cortisol absolute change vs control / Cortisol percentage change vs control / DHEA absolute change vs control / DHEAS absolute change vs control / Prog absolute change vs control / Prog percentage change vs control / Testosterone absolute change vs control / Testosterone percentage change vs control: 3 days; for 11-DOC absolute change vs control / 11-DOC percentage change vs control / 17-OHP absolute change vs control / 17-OHP percentage change vs control / Androstenedione absolute change vs control / Androstenedione percentage change vs control / Corticosterone absolute change vs control / Corticosterone percentage change vs control / Cortisol absolute change vs control / Cortisol percentage change vs control / DHEA absolute change vs control / DHEAS absolute change vs control / Prog absolute change vs control / Prog percentage change vs control / Testosterone absolute change vs control / Testosterone percentage change vs control: EAS associated adrenal hyperplasia no. 1, Basal
Experimental: To obtain primary cultures, adrenal specimens (adrenocortical adenomas, adrenal hyperplasias and adrenocortical carcinomas) were collected after adrenalectomy at the department of Surgery, Erasmus University Medical Center, Rotterdam, the Netherlands, between April 2016 and May 2018. The study was conducted under guidelines that have been approved by the Medical Ethics Committee of the Erasmus Medical Center and informed consent was obtained from all patients. Immediately after surgery, specimens were minced into small pieces of 2-3 mm^3, washed in culture medium and centrifuged for 5 minutes at 600 g. The tissue was stored overnight in culture medium at 4° C., where after the tissue was centrifuged again and the supernatant was removed. Fragments were dissociated using 10-25 ml collagenase type 1 (2 mg/ml: Sigma-Aldrich), followed by incubation at 37° C. for up to two hours. Ficoll (GE healthcare) density gradient separation was used once or twice as required in order to separate contaminating red blood cells from the tumor cells. Cell viability and cell amount were counted by trypan blue exclusion. Dissociated cells were plated at a density of 10^5 cells per well. ACTH-secreting corticotroph pituitary adenoma tissue from patients with Cushing's disease (n=2) was available after transsphenoidal surgery. Single-cell suspensions of the pituitary adenoma tissues were prepared as previously described in detail.
Primary culture conditions for primary cultures were similar as described in the section ‘cell culture and compounds’, but with small adjustments: ACTH was used at a concentration of 85 pM (250 pg/mL), treatment was started 3-4 days after plating of the cells and cells were incubated for 3 days, and; for pituitary primary cultures, levoketoconazole and racemic ketoconazole were only tested at a concentration of 1 μM. Owing to a limited number of cells obtained from the specimens, not all experiments were carried out in every primary culture.
Cortisol concentrations were measured in the supernatant using a chemiluminescence immunoassay system (Immulite 2000XPi; Siemens DPC Inc., Los Angeles, Calif., USA). In addition, we carried out multi-steroid analysis by liquid chromatography/mass spectrometry (LC/MS-MS) to accurately quantify androstenedione, corticosterone, cortisol, 11-deoxycortisol, DHEA, DHEAS, progesterone, 17-hydroxyprogesterone, and testosterone. Concentrations that were tested on the LC/MS-MS were closest to 50% inhibition or maximal inhibition of cortisol as determined by the immunoassay. Steroids were quantified with respect to a calibration series, with internal standards. Steroids were quantified on a Xevo TQS LC-MS/MS (Waters Chromatography).
Statistical analysis was performed using Graphpad Prism 6.0 (Graphpad Software, San Diego, CA). Non-linear regression curve fitting program was used to calculate the half maximal inhibitory concentrations (IC50) on cortisol production. Effects of both compounds on the steroid profile were measured as absolute change compared to control and compared using the Student's t-test. When assessing differences between effects of both compounds, the percentage change was evaluated and compared in order to correct for differences in the vehicle treated control cells. Values of P<0.05 were considered statistically significant and data are presented as mean SEM.

CC(=O)N1CCN(c2ccc(OCC3COC(Cn4ccnc4)(c4ccc(Cl)cc4Cl)O3)cc2)CC1 (racemic) [racemic ketoconazole, Ketoconazole]
11-DOC absolute change vs ACTH stimulation with vehicle (0.05 μM): +76.63 nmol/l
11-DOC percentage change vs ACTH stimulation with vehicle (0.05 μM): (+25%**)
17-OHP absolute change vs ACTH stimulation with vehicle (0.05 μM): +8.133 nmol/l
17-OHP percentage change vs ACTH stimulation with vehicle (0.05 μM): (+52%)
Androstenedione absolute change vs ACTH stimulation with vehicle (0.05 μM): -7.475 nmol/L
Androstenedione percentage change vs ACTH stimulation with vehicle (0.05 μM): (−39%)
Corticosterone absolute change vs ACTH stimulation with vehicle (0.05 μM): +105.7 nmol/l
Corticosterone percentage change vs ACTH stimulation with vehicle (0.05 μM): (+31%)
Cortisol absolute change vs ACTH stimulation with vehicle (0.05 μM): -62.25 nmol/L
Cortisol percentage change vs ACTH stimulation with vehicle (0.05 μM): −11%
DHEA absolute change vs ACTH stimulation with vehicle (0.05 μM): <LLQ
DHEAS absolute change vs ACTH stimulation with vehicle (0.05 μM): <LLQ
Prog absolute change vs ACTH stimulation with vehicle (0.05 μM): +3.425 nmol/l
Prog percentage change vs ACTH stimulation with vehicle (0.05 μM): +96%
Testosterone absolute change vs ACTH stimulation with vehicle (0.05 μM): -0.1750 nmol/L
Testosterone percentage change vs ACTH stimulation with vehicle (0.05 μM): (−28%)
Cortisol percentage change vs ACTH stimulation with vehicle (0.05 μM, listed as RK): (−11%*)
Prog percentage change vs ACTH stimulation with vehicle (0.05 μM, listed as RK): (+96%**)
11-DOC absolute change vs ACTH stimulation with vehicle (5 μM): -402.7 nmol/L
11-DOC percentage change vs ACTH stimulation with vehicle (5 μM): (−99%)
17-OHP absolute change vs ACTH stimulation with vehicle (5 μM): -28.44 nmol/L
17-OHP percentage change vs ACTH stimulation with vehicle (5 μM): (−90%)
Androstenedione absolute change vs ACTH stimulation with vehicle (5 μM): -14.79 nmol/L
Androstenedione percentage change vs ACTH stimulation with vehicle (5 μM): (−98%)
Corticosterone absolute change vs ACTH stimulation with vehicle (5 μM): -397.6 nmol/L
Corticosterone percentage change vs ACTH stimulation with vehicle (5 μM): (−100%)
Cortisol absolute change vs ACTH stimulation with vehicle (5 μM): -643.5 nmol/L
Cortisol percentage change vs ACTH stimulation with vehicle (5 μM): (−100%)
DHEA absolute change vs ACTH stimulation with vehicle (5 μM): <LLQ
DHEAS absolute change vs ACTH stimulation with vehicle (5 μM): <LLQ
Prog absolute change vs ACTH stimulation with vehicle (5 μM): +39.86 nmol/l
Prog percentage change vs ACTH stimulation with vehicle (5 μM): (+1292%)
Testosterone absolute change vs ACTH stimulation with vehicle (5 μM): -0.4350 nmol/L
Testosterone percentage change vs ACTH stimulation with vehicle (5 μM): (−85%)
11-DOC absolute change vs control (0.05 μM): -62.23 nmol/L
11-DOC percentage change vs control (0.05 μM): (−27%)
17-OHP absolute change vs control (0.05 μM): +0.6833 nmol/l
17-OHP percentage change vs control (0.05 μM): (+7.5%)
Androstenedione absolute change vs control (0.05 μM): -5.850 nmol/L
Androstenedione percentage change vs control (0.05 μM): (−55%)
Corticosterone absolute change vs control (0.05 μM): -68.60 nmol/L
Corticosterone percentage change vs control (0.05 μM): (−32%)
Cortisol absolute change vs control (0.05 μM): -86.78 nmol/L
Cortisol percentage change vs control (0.05 μM): (−57%)
DHEA absolute change vs control (0.05 μM): <LLQ
DHEAS absolute change vs control (0.05 μM): <LLQ
Prog absolute change vs control (0.05 μM): +4.475 nmol/l
Prog percentage change vs control (0.05 μM): (+108%)
Testosterone absolute change vs control (0.05 μM): -0.1500 nmol/L
Testosterone percentage change vs control (0.05 μM): (−32%)
11-DOC absolute change vs control (5 μM): -270.7 nmol/L
11-DOC percentage change vs control (5 μM): (−98%)
17-OHP absolute change vs control (5 μM): -15.07 nmol/L
17-OHP percentage change vs control (5 μM): (−92%)
Androstenedione absolute change vs control (5 μM): -8.219 nmol/L
Androstenedione percentage change vs control (5 μM): (−94%)
Corticosterone absolute change vs control (5 μM): -166.5 nmol/L
Corticosterone percentage change vs control (5 μM): (−98%)
Cortisol absolute change vs control (5 μM): -165.2 nmol/L
Cortisol percentage change vs control (5 μM): (−99%)
DHEA absolute change vs control (5 μM): <LLQ
DHEAS absolute change vs control (5 μM): <LLQ
Prog absolute change vs control (5 μM): +19.89 nmol/l
Prog percentage change vs control (5 μM): (+537%***)
Testosterone absolute change vs control (5 μM): -0.2688 nmol/L
Testosterone percentage change vs control (5 μM): (−66%)
total change of steroids (EAS associated adrenal hyperplasia no. 1, basal condition): -218.5 nmol/L
total sum of change of the steroids: increase (EAS associated adrenal hyperplasia no. 1, under ACTH stimulation): 124.0 nmol/L
